Measurements reported in paper PMC4801399, “Impact of a CXCL12/CXCR4 Antagonist in Bleomycin (BLM) Induced Pulmonary Fibrosis and Carbon Tetrachloride (CCl4) Induced Hepatic Fibrosis in Mice” (PLoS ONE, 2016).

What was measured:
[1] = tested on: BLM-induced pulmonary fibrosis; test: BLM-induced murine model of pulmonary fibrosis; format: in vivo, CD-1 mice
Description: PF was induced in six-weeks old female CD-1 mice purchased from Harlan. Animals were randomly divided into three groups (n = 10/group): PBS plus acetate buffer control, BLM plus acetate buffer and BLM plus AMD070.
On day 0, mice were anaesthetized with isoflurane and PF was induced by BLM administration. Specifically, BLM (C103610, Fresenius Kabi Canada, 2U/kg) in 40 μL PBS or vehicle control (PBS) was administrated by non-surgical endotracheal instillation with sterile disposable plastic loading pipette tips. The next day, AMD070 (Shanghai Haoyuan Chemexpress Co., 400 μg/mouse in 200 μL 30 mM acetate buffer) or 200 μL of 30 mM acetate buffer (pH 5) was administrated via oral gavage (PO) with a 20G feeding needle. AMD070 or acetate buffer vehicle was administrated daily for 21 consecutive days. Animals were euthanized with avertin overdose on day 22.
Following perfusion with PBS, lungs were fixed in 4% paraformaldehyde at 4°C for 2 days. These were embedded in paraffin, sectioned at 1 mm apart and stained with hematoxylin-eosin (H&E) and Masson’s Trichrome stains. For quantitation of percent PF, entire lung and fibrotic areas were outlined. Percent fibrotic area was calculated by dividing fibrotic area (mm^2) by total lung area (mm^2) and multiplying by 100. For H&E stained slides, two histology slides/animal were selected from the central region of the lungs and analyzed whereas only one histology slide/animal was analyzed with Masson’s Trichrome stained slides. These analyses were performed with Image J and the analyst was blinded to sample identification.

[2] = tested on: leukocyte mobilization (blood cell counts); test: Hematology measurements after SC administration; format: in vivo, C57BL/6 mice; conditions: SC 400 μg/mouse; data not shown
Description: Non fasted C57BL/6 mice at 7 to 8 weeks of age from Harlan were sacrificed at 0.5, 1, 3, 24 and 48 hours (n = 3/time point) post administration of AMD070 (in 30 mM acetate buffer, pH 5) (400 μg/mouse). All preceding procedures were same as those for AMD070 PK studies via IP injections.

[3] = tested on: CCl4-induced hepatic fibrosis; test: CCl4-induced murine model of hepatic fibrosis; format: in vivo, C57BL/6 mice
Description: Hepatic fibrosis was induced in eleven week old female C57BL/6 mice from JAX Labs. Animals were randomly divided into three groups: oil plus vehicle (PBS) control, CCl4 plus vehicle (PBS) control and CCl4 plus AMD070. As some animals were euthanized prior to study completion because they had reached a humane endpoint, final group numbers were n = 9 for oil plus vehicle (PBS) control, n = 6 for CCl4 plus vehicle (PBS) control and n = 7 for CCl4 plus AMD070 groups. […] Starting one day prior to the initial CCl4 treatment (day -1), dosing with either AMD070 reconstituted in PBS (50 mg/kg) or PBS vehicle control (10 mL/kg) was administered IP and continued 5 days/week for 4 weeks. Specifically, AMD070 or PBS treatments were not performed on the 2 days/week on which animals were given CCl4 (or olive oil vehicle control). One day after the last AMD070 or PBS treatment, animals were euthanized with CO2.
Livers were perfused with PBS then 10% formalin and the left top lobe preserved in 10% neutral buffer formalin (NBF) for a week. The fixed liver was embedded in paraffin, six cross sections at 500 μm apart generated and stained with Picrosirius Red. For quantitation of percent hepatic fibrosis, fibrotic area (Picrosirius Red) was divided by total liver area and multiplying by 100. Three histology slides/animal were analyzed. The three slides corresponded to one slide from each of the alternative six cross sections. These analyses were performed with Olympus cellSens and the analyst was blinded to sample identity.
The top right lobe of livers were homogenized in 1 mL of Trizol (Invitrogen) and flash frozen in dry ice and stored in -80°C for RNA isolation to perform RT-qPCR. Total RNA was isolated and cDNA prepared using the High Capacity cDNA Reverse Transcription kit according to the manufacturer’s instructions (Life Technologies). RT-qPCR was carried out as previously described using the standard curve method. The following primer/probe sets were used to detect: Acta2 (IDT Assay–N007392.1), Probe- 5’-/56-FAM/TTACAGAGC/ZEN/CCAGAGCCATTGTCG/3IABkFQ/3’, Primer 1–5’-[…]-3’, Primer 2: 5’-[…]-3’; Col1a1 (Life Technologies custom primer/probe mix), primer 1–5’-[…], primer 2–5’- […], probe- 5’-FAM-ACACCGGAACTTGGG-MGBNFQ; Tbp (Life Technologies custom primer/probe mix), Primer 1–5’-[…], Primer 2–5’-TGGCTCCTGTGCACACCAT, Probe- 5’-FAM-CGTTGATTTTCAGTTCTGG-MGBNFQ; Gapdh (IDT Assay–Mm.PT.39a.1), probe- 5’-/56-FAM/TGCAAATGG/ZEN/CAGCCCTGGTG/3IABkFQ/3’, primer 1–5’-AATGGTGAAGGTCGGTGTG-3’, primer 2–5’-[…]-3’.
Five μL of serum was used with the AST Activity Assay Kit (Sigma MAK055) as per manufacturer’s instructions to determine serum AST levels.

[4] = BLM plus AMD070 400 μg/mouse PO daily 21 days, day 22, mean, n = 9
[5] = RT-qPCR relative to Gapdh and Tbp, CCl4 plus AMD070 vs CCl4 plus PBS

## NCCCCN(Cc1nc2ccccc2[nH]1)[C@H]1CCCc2cccnc21 [AMD070]
[1]; [4]
  lung fibrosis, Masson's Trichrome: 10.5%
  lung inflammation, H & E stained lungs (percent surface area): 14.2%
[1]; BLM plus AMD070 400 μg/mouse PO daily, 22 days, BLM plus acetate buffer 40%
  survival over the duration of the study: 90%
[2]
  blood cell count changes compared with IP: magnitude of these changes were lower
[3]; CCl4 plus AMD070 50 mg/kg IP 5 days/week for 4 weeks, group average, CCl4 plus PBS 3.2%
  percent liver fibrosis (Picrosirius red staining): 3.6%
[3]; CCl4 plus AMD070 50 mg/kg IP vs control groups
  mortality rate between groups: no difference
[3]; [5]
  liver Acta2 (αSma) relative transcription level: not different
  liver Col1a1 relative transcription level: not different
[3]; after 4 weeks, CCl4 plus AMD070 vs CCl4 plus vehicle control
  serum AST levels: no difference
